Source: US4556660A, “N-(Bicyclic heterocyclyl)-4-piperidinamines” (Janssen Pharmaceutica N.V., priority 1983, dated 1985)
Like-named read-outs stand apart in the source and are kept apart here.

How the values were obtained:
[1] = test system: compound 48/80-induced lethality; assay: Protection of rats from compound 48/80-induced lethality; format: in vivo, Male rats of an inbred Wistar strain; settings: for ED50: Rattus norvegicus, 4 h, read-out: compound 48/80 lethality test rats-ED50
Experimental: Protection of rats from compound 48/80-induced lethality
The protection from compound 48/80-induced lethal circulatory collapse appears to be a simple way of evaluating quantitatively the antihistaminic activity of test compounds. Male rats of an inbred Wistar strain, weighing 240-260 g were used in the experiment. After overnight starvation the rats were transferred to conditioned laboratories (temp.=21±1° C., relative humidity-65±5%).
The rats were treated subcutaneously or orally with a test compound or with the solvent (NaCl solution, 0.9%). […] Survival after 4 hours is therefore considered to be a safe criterion of a protective effect of drug administration.
The ED50 -values of the compounds of formula (I) and the intermediates of formula (XVIII) are listed in the first column of table 1 and table 2. Said ED50 -values are the values in mg/kg body weight at which the tested compounds protect 50% of the tested animals against compound 48/80-induced lethality.

[2] = test system: serotonin; compound 48/80-induced gastric lesions; assay: Antagonistic activity on the effects of serotonin in the gastric lesion test (lesions induced by compound 48/80); format: in vivo, Male rats of a Wistar inbred strain
Experimental: Antagonistic activity on the effects of serotonin in the gastric lesion test
Male rats of a Wistar inbred strain, weighing 220-250 g, were starved overnight, water being available ad libitum. The test compounds were administered orally as a solution or as a suspension in aqueous medium. A control rat and a "blank" rat received the test compound. One hour later 5-[4-(diphenylmethyl)-1-piperazinylmethyl]-1-methyl-1H-benzimidazole-2-methanol was administered subcutaneously to all rats at the dose of 2.5 mg/kg.
Four hours after the intravenous injection of compound 48/80, the rats were decapitated and the stomachs were removed. Subsequently the stomachs were inspected for distension and contents (blood, fluid, food) and thoroughly rinsed. The macroscopic lesions were scored from 0 to +++, 0 corresponding to complete absence of visible lesions and the highest score corresponding to reddish rough patches covering more than half the glandular area.

[3] = Rattus norvegicus, po; read-out: gastric lesion test ED50
[4] = Rattus norvegicus, po, read-out: gastric lesion test ED50

Row | Compound | ED50 [1] | ED50 [2, 3] | other results
1 | COc1ccc2c(c1)nc(NC1CCN(CCNc3ncccn3)CC1)n2Cc1ccc(F)cc1 | 1.25 mg/kg | 2.5 mg/kg | 
2 | Oc1ccc2c(c1)nc(NC1CCN(CCNc3ncccn3)CC1)n2Cc1ccc(F)cc1 | 0.16 mg/kg | 2.5 mg/kg | 
3 | COc1ccc2nc(NC3CCN(CCNc4ncccn4)CC3)n(Cc3ccc(F)cc3)c2c1 | 1.25 mg/kg | 2.5 mg/kg | 
4 | Fc1ccc(Cn2c(NC3CCN(CCNc4ncnc5ccccc45)CC3)nc3ccccc32)cc1 | 0.08 mg/kg | 2.5 mg/kg | 
5 | 3[(4-fluorophenyl)methyl]-N-[1-[2-[(2-pyridinyl)amino]ethyl]-4-piperidinyl]-3H-imidazo[4,5-b]pyridin-2-amine [Compound 23] |  |  | compound 48/80 lethality test rats-ED50 ([1]; rats, subcutaneous or oral, 1 h before compound 48/80 0.5 mg/kg i.v., 50% protected, survival after 4 h): 0.04 mg/kg body weight; gastric lesion test ED50 ([2]; rats, oral, 2 h before compound 48/80 1 mg/kg i.v.; stomach distension and glandular lesions completely absent in 50% of rats): 0.08 mg/kg body weight
6 | OCCN1CCC(Nc2nc3cnccc3n2Cc2ccc(F)cc2)CC1 [CH2 CH2 OH 4-FC6 H4 CH2 -- 3 base] | 0.31 mg/kg |  | 
7 | OCCN1CCC(Nc2nc3ncccc3n2Cc2ccc(F)cc2)CC1 [CH2 CH2 OH 4-FC6 H4 CH2 -- 4 base] | 0.01 mg/kg | 0.63 mg/kg | 
8 | Fc1ccc(Cn2c(NC3CCN(CCNc4ncccn4)CC3)nc3ccccc32)cc1 [Compound 1, 1-[(4-fluorophenyl)methyl]-N-[1-[2-[(2-pyrimidinyl)amino]ethyl]-4-piperidinyl]-1H-benzimidazol-2-amine] | 0.16 mg/kg | 0.63 mg/kg | 
9 | Fc1ccc(Cn2c(NC3CCN(CCCCNc4ncccn4)CC3)nc3ccccc32)cc1 [Compound 2] | 0.16 mg/kg | 2.5 mg/kg | 
10 | Fc1ccc(Cn2c(NC3CCN(CCCNc4ncccn4)CC3)nc3ccccc32)cc1 [Compound 4] | 0.16 mg/kg |  | 
11 | Fc1ccc(Cn2c(NC3CCN(CCNc4cc(Cl)ncn4)CC3)nc3ccccc32)cc1 [Compound 5] | 0.31 mg/kg |  | 
12 | Fc1ccc(Cn2c(NC3CCN(C4CCN(c5ncccn5)CC4)CC3)nc3ccccc32)cc1 [Compound 6] | 1.25 mg/kg |  | 
13 | CC(CN1CCC(Nc2nc3ccccc3n2Cc2ccc(F)cc2)CC1)Nc1ncccn1 (stereo not shown) [Compound 7] | 0.63 mg/kg | 0.63 mg/kg | 
14 | Fc1ccc(Cn2c(NC3CCN(CCN(Cc4ccccc4)c4ncccn4)CC3)nc3ccccc32)cc1 [Compound 8] | 0.63 mg/kg | 0.63 mg/kg | 
15 | CN(CCN1CCC(Nc2nc3ccccc3n2Cc2ccc(F)cc2)CC1)c1ncccn1 [Compound 10] | 0.08 mg/kg | 0.63 mg/kg | 
16 | O=[N+]([O-])c1cccnc1N1CCC(N2CCC(Nc3nc4ccccc4n3Cc3ccc(F)cc3)CC2)CC1 [Compound 11] | 0.63 mg/kg |  | 
17 | Fc1ccc(Cn2c(NC3CCN(C4CCCN(c5ncccn5)C4)CC3)nc3ccccc32)cc1 (stereo not shown) [Compound 12] | 1.25 mg/kg | 2.5 mg/kg | 
18 | O=[N+]([O-])c1ccc(NCCN2CCC(Nc3nc4ccccc4n3Cc3ccc(F)cc3)CC2)nc1 [Compound 13] | 0.31 mg/kg | 2.5 mg/kg | 
19 | O=[N+]([O-])c1cc[n+]([O-])cc1NCCN1CCC(Nc2nc3ccccc3n2Cc2ccc(F)cc2)CC1 [Compound 14] | 0.04 mg/kg | 1.25 mg/kg | 
20 | c1ccc(Cn2c(NC3CCN(CCNc4ncccn4)CC3)nc3ccccc32)nc1 [Compound 15] | 0.04 mg/kg | 0.63 mg/kg | 
21 | c1cnc(NCCN2CCC(Nc3nc4ccccc4n3Cc3cccnc3)CC2)nc1 [Compound 17] | 1.25 mg/kg |  | 
22 | c1cnc(NCCN2CCC(Nc3nc4ccccc4n3Cc3cnccn3)CC2)nc1 [Compound 18] | 0.01 mg/kg | 0.63 mg/kg | 

Row | Compound | ED50 [1] | ED50 [2, 3] | other results
23 | c1cnc(NCCN2CCC(Nc3nc4ccccc4n3Cc3cccs3)CC2)nc1 [Compound 19] | 0.02 mg/kg | 2.5 mg/kg | 
24 | c1cnc(NCCN2CCC(Nc3nc4ccccc4n3Cc3ccoc3)CC2)nc1 [Compound 20] | 0.04 mg/kg | 0.63 mg/kg | 
25 | Cc1ccc(Cn2c(NC3CCN(CCNc4ncccn4)CC3)nc3ccccc32)o1 [Compound 21] | 0.04 mg/kg | 0.63 mg/kg | 
26 | Fc1ccc(Cn2c(NC3CCN(CCCCCNc4ncccn4)CC3)nc3ccccc32)cc1 [Compound 22] | 0.31 mg/kg |  | ED50 [2, 4]: 0.08 mg/kg
27 | NC(=O)c1cccnc1NCCN1CCC(Nc2nc3cccnc3n2Cc2ccc(F)cc2)CC1 [Compound 24, 2-[[2-[4-[[3-[(4-fluorophenyl)methyl]-3H-imidazo[4,5-b]pyridin-2-yl]amino]-1-piperidinyl]ethyl]amino]-3-pyridinecarboxamide] | 0.04 mg/kg |  | ED50 [2, 4]: 0.04 mg/kg
28 | Fc1ccc(Cn2c(NC3CCN(CCNc4ncccn4)CC3)nc3ncccc32)cc1 [Compound 25, 1-[(4-fluorophenyl)methyl]-N-[1-[2-[(2-pyrimidinyl)amino]ethyl]-4-piperidinyl]-1H-imidazo[4,5-b]pyridin-2-amine] | 0.02 mg/kg | 0.16 mg/kg | 
29 | Fc1ccc(Cn2c(NC3CCN(CCNc4ncccn4)CC3)nc3cnccc32)cc1 [Compound 26, 1[(4-fluorophenyl)methyl]-N-[1-[2-(2-pyrimidinylamino]ethyl]-4-piperidinyl]1H-imidazo[4,5-c]pyridin-2-amine] | 0.08 mg/kg |  | 
30 | c1ccc(Cn2c(NC3CCN(CCNc4ncccn4)CC3)nc3cccnc32)nc1 [Compound 27, 3-(2-pyridinylmethyl)-N-[1-[2-(2-pyrimidinylamino)ethyl]-4-piperidinyl]3H-imidazo[4,5-b]pyridin-2-amine (E)-2-butenedioate (2:3)] | 0.04 mg/kg | 2.5 mg/kg | 
31 | Fc1ccc(Cn2c(NC3CCN(CCNc4ncccn4)CC3)nc3ccncc32)cc1.O=C(O)/C=C/C(=O)O.O=C(O)/C=C/C(=O)O [Compound 29, 3-[(4-fluorophenyl)methyl]-N-[1-[2-[(2-pyrimidinyl)amino]ethyl]-4-piperidinyl]-3H-imidazo[4,5-c]pyridin-2-amine (E)-2-butenedioate (1:2)] | 0.16 mg/kg |  | 
32 | Cc1cc(NCCN2CCC(Nc3nc4ccccc4n3Cc3ccc(F)cc3)CC2)nc(N)n1 [Compound 35] | 0.31 mg/kg |  | 
33 | Cc1nc2ccccc2nc1NCCN1CCC(Nc2nc3ccccc3n2Cc2ccc(F)cc2)CC1 [Compound 41] | 1.25 mg/kg |  | 
34 | Fc1ccc(Cn2c(NC3CCN(CCNc4ccc5ccccc5n4)CC3)nc3ccccc32)cc1 [Compound 44] | 0.31 mg/kg |  | 
35 | Cc1cc(Cl)nc(NCCN2CCC(Nc3nc4ccccc4n3Cc3ccc(F)cc3)CC2)n1 [Compound 62, N-[1-[2-[(4-chloro-6-methyl-2-pyrimidinyl)amino]ethyl]-4-piperidinyl]-1-[(4-fluorophenyl)methyl]-1H-benzimidazol-2-amine] | 0.63 mg/kg |  | 
36 | Brc1ccc(OCCN2CCC(Nc3nc4ccccc4n3Cc3ccco3)CC2)nc1 [Compound 78, N-[1-[2-[(5-bromo-2-pyridinyl)oxy]ethyl]-4-piperidinyl]-1-(2-furanylmethyl)-1H-benzimidazol-2-amine] | 0.31 mg/kg |  | 
37 | Cc1nc2ccccc2nc1OCCN1CCC(Nc2nc3ccccc3n2Cc2ccc(F)cc2)CC1 [Compound 80, 1-[(4-fluorophenyl)methyl]-N-[1-[2-[(3-methyl-2-quinoxalinyl)oxy]ethyl]-4-piperidinyl]-1H-benzimidazol-2-amine] | 2.5 mg/kg |  | 
38 | Fc1ccc(Cn2c(NC3CCN(CCOc4ccc(Br)cn4)CC3)nc3ccccc32)cc1 [Compound 82, N-[1-[2-[(5-bromo-2-pyridinyl)oxy]ethyl]-4-piperidinyl]-1-[(4-fluorophenyl)methyl]-1H-benzimidazol-2-amine] | 0.16 mg/kg |  | 
39 | O=c1cc(Cc2ccccc2)[nH]c(NCCN2CCC(Nc3nc4ccccc4n3Cc3ccc(F)cc3)CC2)n1 [Compound 89, 2-[[2-[4-[[1-[(4-fluorophenyl)methyl]-1H-benzimidazol-2-yl]amino]-1-piperidinyl]ethyl]amino]-6-(phenylmethyl)-4-(1H)-pyrimidinone] | 0.63 mg/kg |  | 
40 | COc1cc(NCCN2CCC(Nc3nc4ccccc4n3Cc3ccc(F)cc3)CC2)ncn1 [Compound 98, 1-[(4-fluorophenyl)methyl]-N-[1-[2-[(6-methoxy-4-pyrimidinyl)amino]ethyl]-4-piperidinyl]-1H-benzimidazol-2-amine] | 0.16 mg/kg |  | 
41 | Fc1ccc(Cn2c(NC3CCN(CCc4cnccn4)CC3)nc3ccccc32)cc1 [Compound 101, 1-(4-fluorophenylmethyl)-N-[1-[2-(2-pyrazinyl)ethyl]-4-piperidinyl]-1H-benzimidazol-2-amine] | 0.31 mg/kg |  | 
42 | O=C(NCCN1CCC(Nc2nc3ccccc3n2Cc2ccc(F)cc2)CC1)c1cccnc1Cl [Compound 115, 2-chloro-N-[2-[4-[[1-[(4-fluorophenyl)methyl]-1H-benzimidazol-2-yl]amino]-1-piperidinyl]ethyl]-3-pyridinecarboxamide (E)-2-butenedioate (1:2) hemihydrate] | 0.16 mg/kg |  | 
43 | N#CCN1CCC(Nc2nc3cnccc3n2Cc2ccc(F)cc2)CC1 [Intermediate 81] | 0.63 mg/kg |  | 
44 | NCCN1CCC(Nc2nc3cnccc3n2Cc2ccc(F)cc2)CC1 [Intermediate 111] | 0.16 mg/kg |  | 
